Assay results from patent US8735620B2, “Processes for preparing (E)-styrylbenzylsulfone compounds and uses thereof for treating proliferative disorders” (priority 2008, dated 2014).
Read-outs that look alike come from different tables or passages of the source.

Tests used:
Type in all cases: cell-based
[1] = system: DLD1 (human colorectal tumor cell line); assay: Cytotoxicity assay (trypan blue exclusion, 96 h), DLD1; conditions: DLD1, 96 h treatment; read-out: DLD1 IC50
Description: (§1) Tissue Culture and Reagents: Paclitaxel was purchased from Sigma. Cell lines were purchased from ATCC. Cell lines were routinely grown in DMEM or RPM1 (CellGro) supplemented with 10% fetal bovine serum (Atlas) and 1 unit/mL penicillin-streptomycin (Gibco).

[2] = system: H157 (human lung tumor cell line); assay: Cytotoxicity assay (trypan blue exclusion, 96 h), H157; conditions: H157, 96 h treatment; read-out: H157 IC50
Description: as §1

[3] = system: BT20, DU145, H157 and DLD1 cell lines; assay: In vitro cytotoxicity, four human tumor cell lines (SAR discussion)
Description: A number of tumor cell lines were tested using a dose response end point assay system. The cells were grown in either DMEM or RPMI supplemented with 10% fetal bovine serum and 1 unit/mL Penicillin-Streptomycin solution. The tumor cells were plated into 6 well dishes at a cell density of 1.0×10^5 cells/mL/well and compounds were added 24 h later at various concentrations. Cell counts were determined from duplicate wells after 96 h of treatment. The total number of viable cells was determined by trypan blue exclusion.
Following the synthesis of this group of compounds, their in vitro cytotoxicity was assessed using four different human tumor cell lines derived from human breast (BT20), prostate (DU145), lung (H157) and colorectal (DLD1) cancers. […] In a majority of the compounds described here, a methoxy group was kept constant at the 4th position on the aromatic ring of the benzyl moiety.

[4] = system: BT20 (human breast tumor cell line); assay: Cytotoxicity assay (trypan blue exclusion, 96 h), BT20; conditions: BT20, 96 h treatment
Description: as §1

[5] = system: DU145 (human prostate tumor cell line); assay: Cytotoxicity assay (trypan blue exclusion, 96 h), DU145; conditions: DU145, 96 h treatment; read-out: DU145 IC50
Description: as §1

Compound | IC50 [1] | IC50 [2] | cytotoxic activity, SAR statement [3] | IC50 [4] | IC50 [5] | cytotoxic activity, SAR statement ([3]; four human tumor cell lines) | activity in cell-killing assays ([3]; at the highest concentration (20 μM) tested) | fold enhancement of activity compared to other disubstituted methoxy sulfones (6j, 6n, 6o and 6p) ([3]; cytotoxicity assays)
COc1ccc(CS(=O)(=O)/C=C/c2ccc(N)cc2)cc1 [6e, (E)-4-Aminostyryl-4-Methoxybenzyl sulfone] | > 20 µM | > 20 µM | gradually decreased the activity | > 20 µM | > 20 µM | – | – | –
COc1ccc(CS(=O)(=O)/C=C/c2c(OC)cc(O)cc2OC)cc1O [6z, (E)-2,6-Dimethoxy-4-hydroxystyryl-3-Hydroxy-4-Methoxybenzyl Sulfone] | 0.5 µM | 0.5 µM | – | 0.25 µM | 0.5 µM | – | – | –
COc1cc(OC)c(/C=C/S(=O)(=O)Cc2ccc([N+](=O)[O-])cc2)c(OC)c1 [6af, (E)-2,4,6-trimethoxystyryl-4-Nitrobenzyl sulfone] | – | – | – | – | – | substantially lost activity | – | –
COc1ccc(CS(=O)(=O)/C=C/c2cc(OC)c(OC)c(OC)c2)cc1 [6t, (E)-3,4,5-Trimethoxystyryl-4-Methoxybenzyl sulfone] | > 20 µM | > 20 µM | – | > 20 µM | > 20 µM | – | totally inactive | –
COc1ccc(CS(=O)(=O)/C=C/c2ccc(C)cc2C)cc1 [6h, (E)-2,4-Dimethylstyryl-4-Methoxybenzyl sulfone] | – | – | low level of cytotoxicity | – | 12 µM | – | – | –
COc1cc(OC)c(/C=C/S(=O)(=O)Cc2ccc(Cl)cc2)c(OC)c1 [6ae, (E)-2,4,6-trimethoxystyryl-4-chlorobenzyl sulfone] | – | – | substantially lost activity | 10 µM | 7.5 µM | – | – | –
COc1ccc(CS(=O)(=O)/C=C/c2ccc(OC)cc2OC)cc1 [6n, (E)-2,4-Dimethoxystyryl-4-Methoxybenzyl sulfone] | > 20 µM | > 20 µM | – | > 20 µM | > 20 µM | – | – | –
COc1ccc(CS(=O)(=O)/C=C/c2c(OC)cc(O)cc2OC)cc1 [6u, (E)-2,6-Dimethoxy-4-hydroxystyryl-4-Methoxybenzyl sulfone] | > 20 µM | > 20 µM | – | > 20 µM | > 20 µM | either a reduced level or total loss of activity | – | –
COc1ccc(CS(=O)(=O)/C=C/c2ccc([N+](=O)[O-])cc2)cc1 [6d, (E)-4-Nitrostyryl-4-Methoxybenzyl sulfone] | 5 µM | 7.5 µM | – | 5 µM | 7.5 µM | gradually decreased the activity | – | –
COc1ccc(CS(=O)(=O)/C=C/c2ccc(F)cc2Cl)cc1 [6g, (E)-2-Chloro-4-fluorostyryl-4-Methoxybenzyl sulfone] | 4 µM | 2.5 µM | retained cytotoxic activity | 2.5 µM | 2 µM | – | – | –
COc1ccc(/C=C/S(=O)(=O)Cc2ccc(OC)cc2)cc1 [6a, (E)-4-Methoxystyryl-4-Methoxybenzyl sulfone] | > 20 µM | > 20 µM | gradually decreased the activity | > 20 µM | > 20 µM | – | – | –
COc1cc(OC)c(/C=C/S(=O)(=O)Cc2ccc(C(=O)O)cc2)c(OC)c1 [6ah, (E)-2,4,6-trimethoxystyryl-4-Carboxybenzyl sulfone] | – | 17.5 µM | – | – | 10 µM | substantially lost activity | – | –
COc1ccc(CS(=O)(=O)/C=C/c2c(OC)cccc2OC)cc1 [6m, (E)-2,6-Dimethoxystyryl-4-Methoxybenzyl sulfone] | 0.7 µM | 0.7 µM | – | 0.4 µM | 0.25 µM | – | – | greater than 40 fold
COc1ccc(CS(=O)(=O)/C=C/c2cc(OC)ccc2OC)cc1 [6o, (E)-2,5-Dimethoxystyryl-4-Methoxybenzyl sulfone] | > 20 µM | > 20 µM | – | > 20 µM | > 20 µM | – | – | –
COc1ccc(CS(=O)(=O)/C=C/c2ccc(F)cc2)cc1 [6b, (E)-4-Fluorostyryl-4-Methoxybenzyl sulfone] | 2 µM | 2.5 µM | moderate cytotoxic activity | 1.5 µM | 1.25 µM | – | – | –
COc1cc(OC)c(/C=C/S(=O)(=O)Cc2ccc(OC)c(OC)c2OC)c(OC)c1 [6ad, (E)-2,4,6-Trimethoxystyryl-2,3,4-Trimethoxybenzyl sulfone] | – | – | – | – | 12.5 µM | – | – | –
COc1ccc(CS(=O)(=O)/C=C/c2ccc(F)c(OC)c2)cc1 [6i, (E)-4-Fluoro-3-methoxystyryl-4-Methoxybenzylsulfone] | – | – | – | – | 10 µM | loss of activity | – | –
COc1ccc(CS(=O)(=O)/C=C/c2c(C)cc(C)cc2C)cc1 [6w, (E)-2,4,6-Trimethylstyryl-4-Methoxybenzyl sulfone] | > 20 µM | > 20 µM | inactive | > 20 µM | > 20 µM | – | – | –
COc1ccc(CS(=O)(=O)/C=C/c2ccc(OC)c(OC)c2)cc1 [6j, (E)-3,4-Dimethoxystyryl-4-Methoxybenzyl sulfone] | > 20 µM | > 20 µM | – | > 20 µM | > 20 µM | – | – | –
COc1ccc(CS(=O)(=O)/C=C/c2c(C)cccc2C)cc1 [6l, (E)-2,6-Dimethylstyryl-4-Methoxybenzyl sulfone] | > 20 µM | > 20 µM | low level of cytotoxicity | > 20 µM | > 20 µM | – | – | –
COc1ccc(CS(=O)(=O)/C=C/c2c(OC)cc(F)cc2OC)cc1 [6v, (E)-2,6-Dimethoxy-4-fluorostyryl-4-Methoxybenzyl sulfone] | 0.75 µM | 0.5 µM | either a reduced level or total loss of activity | 0.75 µM | 0.5 µM | – | – | –
COc1cc(OC)c(/C=C/S(=O)(=O)Cc2ccc(O)cc2)c(OC)c1 [6ai, (E)-2,4,6-trimethoxystyryl-4-Hydroxybenzyl sulfone] | – | – | – | – | 7.5 µM | substantially lost activity | – | –
COc1cc(OC)c(/C=C/S(=O)(=O)Cc2ccc(OC(F)(F)F)cc2)c(OC)c1 [6x, (E)-2,4,6-Trimethoxystyryl-4-Trifluoromethoxybenzyl sulfone] | 4 µM | 6 µM | – | 3 µM | 4 µM | – | – | –
COc1ccc(CS(=O)(=O)/C=C/c2cc(OC)c(OC)c(OC)c2)cc1O [6y, (E)-3,4,5-Trimethoxystyryl-3-Hydroxy-4-Methoxybenzyl Sulfone] | 10 µM | 10 µM | – | 7.5 µM | 5 µM | – | – | –
COc1cc(OC)c(/C=C/S(=O)(=O)Cc2cc(OC)c(OC)c(OC)c2)c(OC)c1 [6ac, (E)-2,4,6-trimethoxystyryl-3,4,5-Trimethoxybenzyl sulfone] | > 20 µM | > 20 µM | – | > 20 µM | > 20 µM | – | – | –
COc1ccc(CS(=O)(=O)/C=C/c2cc(OC)cc(OC)c2)cc1 [6p, (E)-3,5-Dimethoxystyryl-4-Methoxybenzyl sulfone] | > 20 µM | > 20 µM | – | > 20 µM | > 20 µM | – | – | –
COc1cc(OC)c(/C=C/S(=O)(=O)Cc2ccc(C#N)cc2)c(OC)c1 [6ag, (E)-2,4,6-trimethoxystyryl-4-Cyanobenzyl sulfone] | – | – | substantially lost activity | 12.5 µM | 7.5 µM | – | – | –
